Non-standard residues stand in square brackets, D forms with d. Residues, ends and D or L forms follow the SMILES beside them. ξ: configuration not given here. *: point of attachment. ONp = O=[N+]([O-])c1ccc(O*)cc1; ξE = NC(CCC(=O)O)C(=O)O; Cbz = O=C(OCc1ccccc1)*
Tests used:
[1] = target: T1, Human TG2 (Homo sapiens, UniProt P21980); design: method as in PMID 35158154, PMID 28858494; conditions: read-out: KM of substrate for TG2; cited from earlier work
T1 construct: made in house
T1 sequence (P21980 1-687): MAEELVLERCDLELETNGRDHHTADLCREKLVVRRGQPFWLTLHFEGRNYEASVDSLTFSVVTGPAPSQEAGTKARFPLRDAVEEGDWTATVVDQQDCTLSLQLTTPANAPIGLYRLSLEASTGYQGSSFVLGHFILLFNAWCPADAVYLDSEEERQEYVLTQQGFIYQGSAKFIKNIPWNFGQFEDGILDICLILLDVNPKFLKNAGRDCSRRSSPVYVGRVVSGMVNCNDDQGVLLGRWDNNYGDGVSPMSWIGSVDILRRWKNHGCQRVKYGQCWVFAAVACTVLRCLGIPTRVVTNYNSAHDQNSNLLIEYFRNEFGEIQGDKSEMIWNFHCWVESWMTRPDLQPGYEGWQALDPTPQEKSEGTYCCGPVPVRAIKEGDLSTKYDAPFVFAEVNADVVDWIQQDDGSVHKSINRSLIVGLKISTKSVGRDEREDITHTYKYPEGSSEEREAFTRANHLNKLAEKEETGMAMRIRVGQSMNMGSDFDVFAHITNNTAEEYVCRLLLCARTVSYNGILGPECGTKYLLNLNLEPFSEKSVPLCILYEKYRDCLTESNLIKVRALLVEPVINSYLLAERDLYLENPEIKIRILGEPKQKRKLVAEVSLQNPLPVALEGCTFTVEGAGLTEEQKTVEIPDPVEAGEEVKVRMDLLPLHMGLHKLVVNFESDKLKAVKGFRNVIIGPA

[2] = target: T2, Thrombin-activated human FXIIIa (Homo sapiens, UniProt P00488); assay: Fluorescence-quenched A101 isopeptidase assay of FXIIIa inhibition kinetics; format: biochemical; conditions: 0, 100, 200, 320 µM
T2 construct: purchased Zedira GmbH T070
T2 sequence (P00488 39-732 limits assumed): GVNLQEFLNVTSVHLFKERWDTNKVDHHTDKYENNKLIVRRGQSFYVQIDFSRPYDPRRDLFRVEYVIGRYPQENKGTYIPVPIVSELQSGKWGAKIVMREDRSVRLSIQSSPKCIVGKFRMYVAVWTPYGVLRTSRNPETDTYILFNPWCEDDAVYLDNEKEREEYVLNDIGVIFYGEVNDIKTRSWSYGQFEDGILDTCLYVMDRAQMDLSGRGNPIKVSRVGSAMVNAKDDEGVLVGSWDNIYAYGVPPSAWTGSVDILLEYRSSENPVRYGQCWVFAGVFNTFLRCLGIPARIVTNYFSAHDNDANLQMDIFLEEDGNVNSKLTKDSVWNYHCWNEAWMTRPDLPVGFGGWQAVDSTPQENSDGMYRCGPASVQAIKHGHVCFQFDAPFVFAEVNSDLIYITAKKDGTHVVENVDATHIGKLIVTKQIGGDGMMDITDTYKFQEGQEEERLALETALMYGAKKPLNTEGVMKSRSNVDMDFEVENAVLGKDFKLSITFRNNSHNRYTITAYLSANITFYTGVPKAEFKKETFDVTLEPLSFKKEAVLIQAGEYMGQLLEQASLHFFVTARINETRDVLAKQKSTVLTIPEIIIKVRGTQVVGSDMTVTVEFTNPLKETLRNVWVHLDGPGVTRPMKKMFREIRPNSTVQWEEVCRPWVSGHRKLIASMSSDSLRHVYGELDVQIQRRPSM

Structure (SMILES) | Km [1] | traces in FXIIIa A101 inhibition assay (fluorescence interference control) [2]
O=C(O)CNC(=O)C(CCC(=O)Oc1ccc([N+](=O)[O-])cc1)NC(=O)OCc1ccccc1 (centres unmarked) [AL5, Cbz-Glu(ɣ-p-nitrophenyl ester)Gly-OH] (Cbz-[ξE](ONp)-Gly-OH) | 10 µM | 
CN(C)c1cccc2c(S(N)(=O)=O)cccc12 [Dansyl amide] |  | nearly identical traces as those obtained using the dansylated inhibitor library

Reference: article PMC9960274, “Peptidic Inhibitors and a Fluorescent Probe for the Selective Inhibition and Labelling of Factor XIIIa Transglutaminase” (Molecules, 2023)
